Assays:
Assay type in all cases: in vivo
Seedling Johnsongrass = test: Pre-emergent herbicidal activity (Table A); settings: Sorghum halepense, pre-emergence, Sejg, 11.2 kg/ha, 10-14 days, read-out: herbicidal rating (% inhibition)
Summary of the method: (§1)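 Seeds were sown on compacted topsoil and covered with soil into which test compound (in acetone or water carrier) had been mixed at 11.2 kg/ha. Pans were kept watered on a greenhouse bench, and percent inhibition was scored as a rating about 10-14 days (usually 11) after treatment.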

Wild Buckwheat = test: Pre-emergent herbicidal activity (Table A); settings: Fallopia convolvulus, pre-emergence, Wibw, 11.2 kg/ha, 10-14 days, read-out: herbicidal rating (% inhibition)
Summary of the method: as §1

Annual Bluegrass = test: Pre-emergent herbicidal activity (Table A); settings: pre-emergence, Anbg, 11.2 kg/ha, 10-14 days, read-out: herbicidal rating (% inhibition)
Summary of the method: as §1

Indian Mustard = test: Pre-emergent herbicidal activity (Table A); settings: Brassica juncea, pre-emergence, Inmu, 11.2 kg/ha, 10-14 days, read-out: herbicidal rating (% inhibition)
Summary of the method: as §1

Rice = test: plant injury after spraying emerged plants (Table D); parameters: scale not given here
Summary of the method: (§2)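 Seeds or vegetative propagules of annual and perennial species were pressed into steam-sterilized silt loam, covered with 1.27 cm of topsoil/peat-moss/vermiculite mix, and grown on greenhouse benches with subirrigation. Injury was scored on emerged plants after spraying.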

Vele = test: as above; parameters: scale not given here
Summary of the method: as §2

Prmi = test: as above; parameters: scale not given here
Summary of the method: as §2

Wibw = test: as above; parameters: scale not given here
Summary of the method: as §2

Hese = test: as above; parameters: scale not given here
Summary of the method: as §2

Cotz = test: as above; parameters: scale not given here
Source text: (§3) Topsoil (silt loam) is sieved through a screen having 1.27 cm openings. In some of the tests the soil was mixed with fertilizer (1225 g/cu. m of 12/5/9 containing isobutylidene diurea), while in other tests the fertilizer was omitted. This mixture is steam sterilized and then placed in aluminum pans 6.985 cm deep having ten holes in the bottom each 0.635 cm in diameter. The soil mixture is compacted to a depth of 1.27 cm. from the top of the pan. A predetermined number of seeds of each of several dicotyledonous and monocotyledonous annual plant species and/or vegetative propagules for the perennial plant species are placed on the soil and pressed into the soil surface. The seeds and/or vegetative propagules are covered with 1.27 cm of a mixture of 50% topsoil and 50% of a mixture of Canadian sphagnum peat moss, vermiculite and a wetting agent. The pans are then placed on a capillary mat on a greenhouse bench and subirrigated as needed. After the plants reach the desired stage (9 to 14 days, 1 to 3 true leaf stage), each pan (except the control pans) is removed to a spraying chamber and sprayed by means of an atomizer, operating at a spray pressure of 170.3 kPa ([…]) at the application rates noted in Table D. In the spray solution is an amount of an emulsifying agent mixture (35% butylamine salt of dodecylbenzenesulfonic acid and 65% tall oil condensed with ethylene oxide in the ratio of 11 mols of ethylene oxide/mol of tall oil) to give a spray solution or suspension. The spray solution or suspension contains a sufficient amount of the candidate chemical in order to give application rates of the active ingredient corresponding to those shown in Table D below while applying a total amount of solution or suspension equivalent to 1870 L/Ha (200 gallons/acre). The pans are returned to the greenhouse and watered as before and the injury to the plants as compared to the control pans is observed at approximately 10-14 days (usually 11 days).
(§4) In the following Table D the legends used to identify the plant species are the same as those used in the preceding Table B.

Rape = test: as above; parameters: scale not given here
Source text: as §3, §4

COC(=O)c1c(OC)nc(C(F)(F)F)c(C(=O)Cl)c1CC1CC1 [Compound 113, 3-pyridinecarboxylic acid, 5-(chlorocarbonyl)-4-(cyclopropylmethyl)-2-methoxy-6-(trifluoromethyl)-, methyl ester]
inhibition at 11200 g/ha (Seedling Johnsongrass): 75 to 100% | inhibition at 11200 g/ha (Wild Buckwheat): 25 to 49% | inhibition at 11200 g/ha (Annual Bluegrass): 75 to 100% | inhibition at 11200 g/ha (Indian Mustard): 0 to 24% | plant injury rating, Rice (Rice; 0.2803 kg/ha): 0 | plant injury rating, Rice (Rice; 1.1210 kg/ha): 0 | plant injury rating, Rice (Rice; 5.6050 kg/ha): 0 | plant injury rating, Vele (Vele; 0.2803 kg/ha): 0 | plant injury rating, Vele (Vele; 1.1210 kg/ha): 0 | plant injury rating, Vele (Vele; 5.6050 kg/ha): 1 | plant injury rating, Prmi (Prmi; 0.2803 kg/ha): 0 | plant injury rating, Prmi (Prmi; 1.1210 kg/ha): 0 | plant injury rating, Prmi (Prmi; 5.6050 kg/ha): 0 | plant injury rating, Wibw (Wibw; 0.2803 kg/ha): 0 | plant injury rating, Wibw (Wibw; 1.1210 kg/ha): 0 | plant injury rating, Wibw (Wibw; 5.6050 kg/ha): 1 | plant injury rating, Hese (Hese; 0.2803 kg/ha): 0 | plant injury rating, Hese (Hese; 1.1210 kg/ha): 0 | plant injury rating, Hese (Hese; 5.6050 kg/ha): 1 | plant injury rating, Cotz (Cotz; 0.2803 kg/ha): 0 | plant injury rating, Cotz (Cotz; 1.1210 kg/ha): 0 | plant injury rating, Cotz (Cotz; 5.6050 kg/ha): 0 | plant injury rating, Rape (Rape; 0.2803 kg/ha): 0 | plant injury rating, Rape (Rape; 1.1210 kg/ha): 0 | plant injury rating, Rape (Rape; 5.6050 kg/ha): 1

COC(=O)c1c(OC)nc(C(F)(F)F)c(N=CSC)c1CC(C)C [Compound 77, 3-pyridinecarboxylic acid, 2-methoxy-4-(2-methylpropyl)-5-[[(methylthio)methylene]amino]-6-(trifluoromethyl)-, methyl ester]
plant injury rating, Rice (Rice; 1.1210 kg/ha): 0 | plant injury rating, Rice (Rice; 2.8025 kg/ha): 0 | plant injury rating, Rice (Rice; 5.6050 kg/ha): 0 | plant injury rating, Rice (Rice; 11.2100 kg/ha): 0 | plant injury rating, Prmi (Prmi; 1.1210 kg/ha): 0 | plant injury rating, Prmi (Prmi; 2.8025 kg/ha): 0 | plant injury rating, Prmi (Prmi; 5.6050 kg/ha): 0

COC(=O)c1c(OC)nc(C(F)(F)F)c(C(=O)SC)c1C1CCC1 [Compound 137, 3-pyridinecarboxylic acid, 4-cyclobuty1-2-methoxy-5-[(methylthio)carbonyl]-6-(trifluoromethyl)-, methyl ester]
inhibition at 11200 g/ha (Seedling Johnsongrass): 75 to 100% | inhibition at 11200 g/ha (Wild Buckwheat): 75 to 100% | inhibition at 11200 g/ha (Annual Bluegrass): 75 to 100% | inhibition at 11200 g/ha (Indian Mustard): 75 to 100% | plant injury rating, Rice (Rice; 0.2803 kg/ha): 0 | plant injury rating, Rice (Rice; 1.1210 kg/ha): 1 | plant injury rating, Rice (Rice; 5.6050 kg/ha): 1 | plant injury rating, Vele (Vele; 0.2803 kg/ha): 3 | plant injury rating, Vele (Vele; 1.1210 kg/ha): 3 | plant injury rating, Vele (Vele; 5.6050 kg/ha): 2 | plant injury rating, Prmi (Prmi; 0.2803 kg/ha): 0 | plant injury rating, Prmi (Prmi; 1.1210 kg/ha): 0 | plant injury rating, Prmi (Prmi; 5.6050 kg/ha): 1 | plant injury rating, Wibw (Wibw; 0.2803 kg/ha): 0 | plant injury rating, Wibw (Wibw; 1.1210 kg/ha): 3 | plant injury rating, Wibw (Wibw; 5.6050 kg/ha): 2 | plant injury rating, Hese (Hese; 0.2803 kg/ha): 1 | plant injury rating, Hese (Hese; 1.1210 kg/ha): 3 | plant injury rating, Hese (Hese; 5.6050 kg/ha): 3 | plant injury rating, Cotz (Cotz; 0.2803 kg/ha): 1 | plant injury rating, Cotz (Cotz; 1.1210 kg/ha): 2 | plant injury rating, Cotz (Cotz; 5.6050 kg/ha): 2 | plant injury rating, Rape (Rape; 0.2803 kg/ha): 3 | plant injury rating, Rape (Rape; 1.1210 kg/ha): 3 | plant injury rating, Rape (Rape; 5.6050 kg/ha): 3

COC(=O)c1c(OC)nc(C(F)(F)F)c(C(=O)n2cccn2)c1CC1CC1 [Compound 116, 3-pyridinecarboxylic acid, 4-(cyclopropylmethyl)-2-methoxy-5-(1H-pyrazo1-1-ylcarbonyl)-6-(trifluoromethyl)-, methyl ester]
inhibition at 11200 g/ha (Seedling Johnsongrass): 75 to 100% | inhibition at 11200 g/ha (Wild Buckwheat): 75 to 100% | inhibition at 11200 g/ha (Annual Bluegrass): 75 to 100% | inhibition at 11200 g/ha (Indian Mustard): 75 to 100% | plant injury rating, Rice (Rice; 0.0701 kg/ha): 0 | plant injury rating, Rice (Rice; 0.2803 kg/ha): 0 | plant injury rating, Rice (Rice; 1.1210 kg/ha): 0 | plant injury rating, Rice (Rice; 5.6050 kg/ha): 0 | plant injury rating, Vele (Vele; 0.0701 kg/ha): 1 | plant injury rating, Vele (Vele; 0.2803 kg/ha): 2 | plant injury rating, Vele (Vele; 1.1210 kg/ha): 3 | plant injury rating, Vele (Vele; 5.6050 kg/ha): 2 | plant injury rating, Prmi (Prmi; 0.0701 kg/ha): 0 | plant injury rating, Prmi (Prmi; 0.2803 kg/ha): 0 | plant injury rating, Prmi (Prmi; 1.1210 kg/ha): 0 | plant injury rating, Prmi (Prmi; 5.6050 kg/ha): 0 | plant injury rating, Wibw (Wibw; 0.0701 kg/ha): 1 | plant injury rating, Wibw (Wibw; 0.2803 kg/ha): 1 | plant injury rating, Wibw (Wibw; 1.1210 kg/ha): 2 | plant injury rating, Wibw (Wibw; 5.6050 kg/ha): 2 | plant injury rating, Hese (Hese; 0.0701 kg/ha): 1 | plant injury rating, Hese (Hese; 0.2803 kg/ha): 1 | plant injury rating, Hese (Hese; 1.1210 kg/ha): 2 | plant injury rating, Hese (Hese; 5.6050 kg/ha): 2 | plant injury rating, Cotz (Cotz; 0.0701 kg/ha): 0 | plant injury rating, Cotz (Cotz; 0.2803 kg/ha): 0 | plant injury rating, Cotz (Cotz; 1.1210 kg/ha): 1 | plant injury rating, Cotz (Cotz; 5.6050 kg/ha): 1 | plant injury rating, Rape (Rape; 0.0701 kg/ha): 1 | plant injury rating, Rape (Rape; 0.2803 kg/ha): 2 | plant injury rating, Rape (Rape; 1.1210 kg/ha): 3 | plant injury rating, Rape (Rape; 5.6050 kg/ha): 3

Reference: patent US5391540A, “Substituted pyridine compounds” (Rohm and Haas Company, priority 1993, dated 1995)
